Results taken from patent publication US20260146044A1, “AROMATIC COMPOUND, PHARMACEUTICAL COMPOSITION CONTAINING SAME, AND USE THEREOF” (Increland, priority 2023, published 2026).

Assays:
[1] = tested on: secretion levels of IL-6 in PBMC cells; assay: Inhibition of LPS+IL-1β-induced IL-6 secretion in PBMC (IL-6 ELISA); format: cell-based; details: human PBMC, 24 h compound pre-incubation, 20 h stimulation
Description: This experiment was carried out in RPMI 1640 medium containing 10% FBS/1% penicillin/streptomycin, with each of the compounds at an initial test concentration of 1 μM. The compound DMSO was dissolved to form a stock solution, which was gradiently diluted 5-fold with the culture medium to a 4× working solution concentration. The diluted solution was added to a 96-well plate with 50 μL per well. PBMC (batch No.: HPP20062307, Sichuan Hope Bio-tech Co., Ltd.) cells were counted, and diluted to a concentration of 2×10^6/mL. The diluted cells were added to the above compound-containing 96-well plate with 150 μL per well, fully mixed, and incubated in an incubator with 5% CO2 at 37° C. for 24 h. Then, LPS and […] were further added to final concentrations of 10 ng/mL and 20 ng/mL, respectively, and the cells were further incubated in the incubator with 5% CO2 at 37° C. for 20 h. Then, after centrifugation at 2,000 rpm for 4 min, the supernatant was diluted 110×, and detected using an IL-6 ELISA kit. An OD450 value was read, and converted to an IL-6 concentration based on a standard curve, to calculate an IC50 value by fitting a dose-effect curve using GraphPad 5.0.

[2] = biological target: T1, IRAK4 protein (Homo sapiens, UniProt Q9NWZ3); assay: IRAK4 protein degradation in THP1 cells (Western blot); format: cell-based; details: 24 h
T1 construct: Effects of Compounds on IRAK4 Protein Degradation in THP1 Cells; endogenous in cells; host or cells: THP-1 cells
T1 sequence (Q9NWZ3 1-460): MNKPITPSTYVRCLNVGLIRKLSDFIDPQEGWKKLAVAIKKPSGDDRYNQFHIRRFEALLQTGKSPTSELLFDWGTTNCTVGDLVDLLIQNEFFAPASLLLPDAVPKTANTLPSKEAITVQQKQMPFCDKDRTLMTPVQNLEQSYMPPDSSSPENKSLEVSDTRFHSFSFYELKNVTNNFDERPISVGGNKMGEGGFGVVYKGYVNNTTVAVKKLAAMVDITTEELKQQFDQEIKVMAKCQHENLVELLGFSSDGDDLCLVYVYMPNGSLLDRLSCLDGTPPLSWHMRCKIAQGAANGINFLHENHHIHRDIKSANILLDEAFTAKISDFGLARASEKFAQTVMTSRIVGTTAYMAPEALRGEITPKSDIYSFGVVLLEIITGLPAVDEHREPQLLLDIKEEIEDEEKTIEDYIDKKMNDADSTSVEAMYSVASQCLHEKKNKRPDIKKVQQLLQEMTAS
Description: THP-1 cells were inoculated into a 96-well cell culture plate, with 5×10^4 cells and 100 μL of a culture medium per well. The cell culture plate was cultured in an incubator with 5% CO2 at 37° C. overnight. 100 nl of a well-prepared compound stock solution and a compound-free DMSO stock solution were respectively added to cells per well. The cell culture plate was incubated in an incubator with 5% CO2 at 37° C. for 24 h. One protease inhibitor tablet and one phosphatase inhibitor tablet were added to 20 mL of a cell lysis buffer, and they were gently mixed until complete dissolution. DTT at a final concentration of 200 mM was added to a 4× sample preparation buffer to prepare a 4× sample preparation working solution. 20× electrophoretic buffer was diluted to 1× with ultrapure water. 20× transfer buffer was diluted to 1× with ultrapure water, and 20% methanol was added. […] IRAK4 protein primary antibody working solution: 20 μl of IRAK4 antibody added to 20 mL of a blocking solution; β-Actin primary antibody working solution: 2 μl of beta-actin (13E5) Rabbit mAb antibody added to 20 mL of a blocking solution. IRAK4 protein secondary antibody working solution: Donkey Anti-Goat IgG H&L (HRP) diluted 1/5,000 in a blocking solution; 3-Actin secondary antibody working solution: Anti-rabbit IgG, RP-linked antibody diluted 1/10,000 in a blocking solution. The cell culture plate was centrifuged at 3,000 rpm for 3 min, and most of the culture medium was carefully pipetted. The cell plate was inverted, and centrifuged at 300 rpm for 30 s. 45 μL of a lysis buffer was added to each well. The mixture was shaken at 300 rpm for 30 s, allowed to stand on ice for 30 min, and pipetted 30 times at 20 min. 6 μL of 4× sample preparation working solution was added to 18 μL of protein supernatant for sample preparation, and the mixture was heated at 70° C. for 10 min. Remaining protein samples were stored at −80° C. In the precast gel, 8 μl of sample was loaded into each well for electrophoresis at a constant voltage of 120 V for about 60 min, transferred using a PVDF membrane at a constant current of 300 mA for 1 h, then blocked with a blocking solution at room temperature for 1 h, and incubated in a primary antibody working solution at 4° C. overnight. The membrane was washed with 1×TBST buffer for 3×10 min. The secondary antibody working solution was incubated at room temperature for 1 h. The membrane was washed with 1×TBST buffer for 3×10 min, and a chromogenic solution was used for exposure and color development.

[3] = tested on: secretion levels of IL-6 in PBMC cells; assay: Inhibition of R848-induced IL-6 secretion in PBMC (IL-6 ELISA); format: cell-based; details: human PBMC, 20 h compound pre-incubation, 24 h stimulation
Description: This experiment was carried out in RPMI 1640 medium containing 10% FBS/1% penicillin/streptomycin, with each of the compounds at an initial test concentration of 1 μM. The compound DMSO was dissolved to form a stock solution, which was gradiently diluted 4-fold with the culture medium to a 4× working solution concentration. The diluted solution was added to a 96-well plate with 50 μL per well. PBMC (batch No.: HPP20062307, Sichuan Hope Bio-tech Co., Ltd.) cells were counted, and diluted to a concentration of 2×10^6/mL. The diluted cells were added to the above compound-containing 96-well plate with 150 μL per well, fully mixed, and incubated in an incubator with 5% CO2 at 37° C. for 20 h. Then, R848 was further added until a final concentration of […], and the cells were further incubated in the incubator with 5% CO2 at 37° C. for additional 24 h. Then, after centrifugation at 2,000 rpm for 4 min, the supernatant was diluted 110×, and detected using an IL-6 ELISA kit. An OD450 value was read, and converted to an IL-6 concentration based on a standard curve, to calculate an IC50 value by fitting a dose-effect curve using GraphPad 5.0.

[4] = Pharmacokinetic experiment on SD rats (iv and ig); format: in vivo; details: Sprague-Dawley, rat, plasma; for Cmax: read-out: Peak plasma concentration Cmax
Description: Pharmacokinetic experiment on SD rats: in this experiment, two administration modes: oral intragastric administration and tail vein injection were selected. Each of the compounds of the present patented invention was administered at an oral dose of 5 mg/kg at an administration volume of 10 mL/kg. […] Appropriate amounts of Solutol and H2O were proportionally added sequentially, and fully mixed ultrasonically by vortexing, to prepare a clear drug solution at 0.5 mg/mL. ICL004-protodrug was administered by intravenous injection at a dose of 1 mg/kg at an administration volume of 10 mL/kg. Right before use, an appropriate amount of the drug was accurately weighed, to prepare a final volume of 20% PEG 400 and 80% Saline. Appropriate amounts of PEG 400 and Saline were proportionally added sequentially, and fully mixed ultrasonically by vortexing, to prepare a clear drug solution at 0.1 mg/mL.
6 SD rats, each with body weight of 180-220 g, were randomly grouped into 2 groups. After fasting but with free access to water overnight, each […] in the first group was administered by gavage. 200 μL of blood was sampled from its eye socket into an anticoagulant tube respectively at each time point of 15 min, 30 min, 1 h, 2 h, 4 h, 6 h, 8 h, and 24 h after administration. Within one h, each of the blood samples was centrifuged at 10,000 rpm at 4° C. for 20 min (the sample was stored on an ice box prior to the centrifugation), and the supernatant (i.e., the plasma) was stored in a refrigerator at −20° C. for LC-MS/MS analysis. 200 μL of blood was sampled from the eye socket of each […] in the second group into an anticoagulant tube respectively at each time point of 5 min, 15 min, 30 min, 1 h, 2 h, 4 h, 8 h, and 24 h after administration by intravenous injection. Within one h, each of the blood samples was centrifuged at 10,000 rpm at 4° C. for 20 min (the blood sample was stored on an ice box prior to the centrifugation), and the supernatant, i.e., the plasma, was stored in a refrigerator at −20° C. for LC-MS/MS analysis.

[5] = Metabolic stability in human liver microsome; details: liver microsomes
Description: (§1) Blank incubation plates T60 and NCF60 were preheated for 10 min; liver microsome was diluted to 0.56 mg/mL in 100 mM phosphate buffer, 445 μL of the microsome working solution (0.56 mg/mL) was transferred to the preheated “incubation” plates T60 and NCF60, and then the incubation plates T60 and NCF60 were pre-incubated with continuous shaking at 37° C. for 10 min. 54 μL of the liver microsome was transferred to a blank plate, then 6 μL of a NAPDH cofactor was added to the blank plate, and then 180 μL of a quenching solution was added to the blank plate; 5 µL of a composite working solution (100 μM) was added to each of the microsome-containing incubation plates (T60 and NCF60), and the mixture was thoroughly mixed 3 times; 50 μL of a buffer was added to the NCF60 plate, and the mixture was thoroughly mixed 3 times. Timing was started; the plates were incubated with shaking at 37° C. for 60 min; and 180 μL of a quenching solution and 6 μL of the NAPDH cofactor were added to a quenching plate TO. The plates were ensured to be cooled to prevent evaporation. For the T60 plate, the mixture was thoroughly mixed 3 times, and 54 μL of the mixture was immediately transferred to the quenching plate at the time point of 0 min. Then, 44 μL of the NAPDH cofactor was added to the incubation plate (T60). Timing was started; and the plate was incubated with shaking at 37° C. for 60 min. At 5, 15, 30, 45, and 60 min, 180 μL of the quenching solution was added to the quenching plate, mixed once, and then 60 μL of sample was continuously transferred from the plate T60 to the quenching plate at each time point.
(§2) For NCF60, the mixture was mixed once, and at the time point of 60 min, 60 μL of sample was transferred from the NCF60 incubator to the quenching solution-containing quenching plate. All sampling plates were shaken for 10 min, then centrifuged at 4,000 rpm at 4° C. for 20 min. 80 µL of the supernatant was transferred to 240 μL of HPLC water, and mixed using a plate shaker for 10 min.

[6] = Metabolic stability in mouse liver microsome; details: liver microsomes
Description: as §1, §2

[7] = Pharmacokinetic experiment on mice (iv and ig); format: in vivo; details: mouse, plasma, ICR Mice; for Cmax: read-out: Peak plasma concentration Cmax
[8] = po, ig 5.00 mg/kg vs iv 1.00 mg/kg, read-out: Oral bioavailability Fobs (%)

SMILES: Cc1nn(C2CCC(=O)NC2=O)c2cccc(N3CC4CN(C[C@H]5CC[C@H](n6cc7cc(NC(=O)c8cnn9cccnc89)c(N8CCO[C@H](C)C8)cc7n6)CC5)CC4C3)c12 (some centres unmarked) [TM-55]
- IC50 [1]: 7.63 nM
- DC50 [2]: 4.81 nM
- IC50 [3]: 5.09 nM

SMILES: Cc1nn(C2CCC(=O)NC2=O)c2cccc(OC3CCN(C[C@H]4CC[C@H](n5cc6cc(NC(=O)c7cnn8cccnc78)c(N7CCOCC7)cc6n5)CC4)CC3)c12 (some centres unmarked) [TM-56]
- AUC ([4]; iv, 1.00 mg/kg): 1900 ng·h/mL
- AUC(0-inf) ([4]; iv, 1.00 mg/kg): 1980 ng·h/mL
- Cmax ([4]; iv, 1.00 mg/kg): 477 ng/mL
- bioavailability [4, 8]: 10.7%
- AUC ([4]; po, ig, 5.00 mg/kg): 1060 ng·h/mL
- AUC(0-inf) ([4]; po, ig, 5.00 mg/kg): 1120 ng·h/mL
- Cmax ([4]; po, ig, 5.00 mg/kg): 96 ng/mL
- half-life at 1 µM [5]: 1.35 h
- half-life at 1 µM [6]: 1.17 h
- bioavailability [7, 8]: 91.9%
- AUC ([7]; po, ig, 5.00 mg/kg): 2510 ng·h/mL
- AUC(0-inf) ([7]; po, ig, 5.00 mg/kg): 2820 ng·h/mL
- Cmax ([7]; po, ig, 5.00 mg/kg): 220 ng/mL
- AUC ([7]; iv, 1.00 mg/kg): 524 ng·h/mL
- AUC(0-inf) ([7]; iv, 1.00 mg/kg): 613 ng·h/mL
- Cmax ([7]; iv, 1.00 mg/kg): 81 ng/mL
- IC50 [1]: 5.49 nM

SMILES: Cc1nn(C2CCC(=O)NC2=O)c2cccc(N3CCN(C[C@H]4CC[C@H](N5Cc6cc(NC(=O)c7cnn8cccnc78)c(N7CCOCC7)cc6C5=O)CC4)CC3)c12 (some centres unmarked) [TM-58]
- IC50 [1]: 3.53 nM
- IC50 [3]: 3.57 nM

SMILES: Cc1nn(C2CCC(=O)NC2=O)c2cccc(N3CC4CN(C[C@H]5CC[C@H](N6Cc7cc(NC(=O)c8cnn9cccnc89)c(N8CCOCC8)cc7C6=O)CC5)CC4C3)c12 (some centres unmarked) [TM-59]
- IC50 [1]: 3.57 nM
- IC50 [3]: 2.21 nM

SMILES: Cc1nn(C2CCC(=O)NC2=O)c2cccc(N3CCN(C[C@H]4CC[C@H](n5cc6cc(NC(=O)c7cnn8cccnc78)c(N7C[C@H]8C[C@@H]7CO8)cc6n5)CC4)CC3)c12 (some centres unmarked) [TM-61]
- IC50 [1]: 7.06 nM
- IC50 [3]: 3.01 nM
